Data reported in patent US8575167B2, “Spiro compounds having stearoyl-CoA desaturase action” (Takeda Pharmaceutical Company Limited, priority 2007, dated 2013).

Experiments:
[1] = tested on: Diet-Induced Obesity (DIO) Model Mouse; assay: Antiobesity action on diet-induced obesity (DIO) model mouse: liver unsaturation index number (C18:1/C18:0); format: in vivo; details: liver C18:1/C18:0 ratio, 0.1 mg/kg body weight by gavage for 4 weeks, n=7
Excerpt: Male C57BL/6J mice (6-week-old) were purchased from CLEA Japan, Inc. The mice were divided into two groups, and a high fat diet (Research Diets, Inc.; solid D12451) was given to one group and a general feed for rearing and breeding (CLEA Japan, Inc.; solid CE-2) was given to the other group.
Each group was reared for 4 months under full feeding, and divided into a diet-induced obesity model group and a general feed group using the body weight and plasma triglyceride concentration as indices. […] of a 0.5% methylcellulose suspension of the compound of Example 15 (0.1 mg/kg body weight) was administered to each of the diet-induced obesity model group and the general feed group by gavage for 4 weeks (each group n=7). […] The body weight of each group was measured during the dosing period. […]
The liver total lipid sample extracted by the above-mentioned procedure was labeled using an ester type fatty acid labeling reagent (YMC). The labeled sample was dissolved in methanol (5 μL) and analyzed using YMC-Pack FA (6.0Φ×250 mm), CH3CN:H2O:0.1% TFA (850:150:2) as a mobile phase at a flow rate of 1.2 mL/min. The peak area of each fatty acid in the sample was determined as a C18:1/C18:0 ratio from the peak area of each standard product and used as an unsaturation index number which is an index of the enzyme activity of SCD. […]

SCD = target: T1, SCD (Rattus norvegicus, UniProt P07308); assay: Measurement of SCD inhibitory activity using microsome (TLC detection system); format: biochemical; details: rat liver microsome (20 μg), 15 min, [14C] stearoyl-CoA, test compound (10 mM) diluted to 3/1000 with 3× buffer, 10 μL in 30 μL reaction
T1 construct: an enzyme reaction using rat liver microsome (20 μg) was performed for 15 min; from tissue; host or cells: rat liver microsome fraction
T1 sequence (P07308 1-358): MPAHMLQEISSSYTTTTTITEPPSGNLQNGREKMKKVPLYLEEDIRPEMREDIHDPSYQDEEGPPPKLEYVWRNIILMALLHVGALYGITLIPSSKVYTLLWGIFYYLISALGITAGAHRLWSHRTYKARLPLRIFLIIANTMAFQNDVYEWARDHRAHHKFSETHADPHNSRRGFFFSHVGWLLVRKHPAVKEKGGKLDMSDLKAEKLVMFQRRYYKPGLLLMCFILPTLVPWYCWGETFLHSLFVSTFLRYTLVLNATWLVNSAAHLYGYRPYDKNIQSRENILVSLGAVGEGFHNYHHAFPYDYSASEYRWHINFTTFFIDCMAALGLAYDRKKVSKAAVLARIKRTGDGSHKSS
Experimental: (Test Method: Measurement of SCD Inhibitory Activity Using Microsome (TLC Detection System))
A test compound (10 mM) diluted with DMSO in advance was secondarily diluted to 3/1000 with 3× buffer (300 mmol/L NaH2PO4 [pH 7.4], 450 mM KCl, 30 mM NaF, 9 mM MgCl2, 4.5 mM glutathione [reduced form], 0.3% BSA [fatty acid free, SIGMA]). The test compound (10 μL) diluted with the assay buffer was dispensed to a PP 96-deep well block, and a microsome fraction (10 μL) diluted with a microsome buffer was added thereto. The enzyme reaction was started by the addition of 10 μL of [^14C] stearoyl-CoA (American Radiolabeled Chemicals [ARC], Inc.) diluted to 10 μCi/mL with 9 mmol/L NADH. For evaluation of the compound, an enzyme reaction using rat liver microsome (20 μg) was performed for 15 min. The reaction was quenched by the addition of 10 μL of 2.5N NaOH, a plate seal was applied, and the reaction mixture was incubated overnight in a dry heater set to 65° C. to allow saponification. Solvent extraction of fatty acid was based on the Bligh&Dyer method (1). Formic acid:methanol:chloroform (1:6:3) (200 μL) was added, the state of single layer was maintained, the mixture was sufficiently stirred, and pure water (120 μL) was added to allow separation into two layers. The lower chloroform layer (10 μL) was spotted on reversed-phase TLC plate (RP-18, 1154230001, Merck Japan, Ltd.) and developed with acetonitrile:pure water:acetic:acid (95:4.5:0.5). The TLC plate was dried and transferred onto an Imaging Plate (Fuji Photo Film Co., Ltd.) for not less than 5 hr. For detection, BAS-5000 (Fuji Photo Film Co., Ltd) was used and the obtained spot images were converted to numerical values using Multi Gauge Ver2.3 (Fuji Photo Film Co., Ltd), based on which the SCD activity inhibitory rate (%) was determined.

| inhibition at 10 µM (SCD; read-out: SCD activity inhibitory rate (%)) [%] | SCD activity inhibitory rate (%) (SCD) | Structure (SMILES) | unsaturation index number (mean ± SD) ([1]; diet-induced obesity model group) | unsaturation index number (mean ± SD) ([1]; general feed group) |
| --- | --- | --- | --- | --- |
| 100 | – | Cc1nsc(-c2ccc(N3CCC4(C3)OCc3ccccc34)nn2)n1 (stereo not shown) [Example 15, 1′-[6-(3-methyl-1,2,4-thiadiazol-5-yl)pyridazin-3-yl]-3H-spiro[2-benzofuran-1,3′-pyrrolidine]] | 43.886 ± 2.0318 | 29.017 ± 1.2254 |
| – | 100 | Cc1noc(-c2ccc(N3CCC4(COc5ccccc54)C3)nn2)n1 (stereo not shown) [Example 179 (short retention time), 1′-[6-(3-methyl-1,2,4-oxadiazol-5-yl)pyridazin-3-yl]spiro[1-benzofuran-3,3′-pyrrolidine]] | – | – |
